Biological target: GST-Bc1-2 (Homo sapiens, UniProt P10415)
Experiment: Time Resolved-Fluorescence Resonance Energy Transfer (TR-FRET) Bcl-2 binding assay with F-Bak peptide probe
Details: GST-Bcl-2 1 nM, F-Bak probe 100 nM, Tb-anti-GST 1 nM; '<' = below limit of detection; read-out: TR-FRET Bcl-2 Binding Ki

Sequence of GST-Bc1-2 (P10415 whole entry): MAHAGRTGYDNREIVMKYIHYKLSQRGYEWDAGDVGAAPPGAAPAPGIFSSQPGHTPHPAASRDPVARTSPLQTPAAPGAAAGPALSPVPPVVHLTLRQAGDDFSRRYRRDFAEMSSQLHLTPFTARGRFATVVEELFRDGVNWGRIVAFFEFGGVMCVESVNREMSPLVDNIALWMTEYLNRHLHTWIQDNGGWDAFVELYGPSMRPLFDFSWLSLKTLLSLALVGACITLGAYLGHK

CC1(C)CCC(CN2CCN(c3ccc(C(=O)NS(=O)(=O)c4ccc(OCC5(F)CCN(C6COC6)CC5)c(Cl)c4)c(Oc4cnc5[nH]ccc5c4)c3)CC2)=C(c2ccc(Cl)cc2)C1 [Example 322, N-[(3-chloro-4-{[4-fluoro-1-(oxetan-3-yl)piperidin-4-yl]methoxy}phenyl)sulfonyl]-4-(4-{[2-(4-chlorophenyl)-4,4-dimethylcyclohex-1-en-1-yl]methyl}piperazin-1-yl)-2-(1H-pyrrolo[2,3-b]pyridin-5-yloxy)benzamide]
Ki: < 0.01 nM

CC1(C)CCC(CN2CCN(c3ccc(C(=O)NS(=O)(=O)c4ccc(OCC5CCOC5)c(Cl)c4)c(Oc4cnc5[nH]ccc5c4)c3)CC2)=C(c2ccc(Cl)cc2)C1 (stereo not drawn) [Example 323, 4-(4-{[2-(4-chlorophenyl)-4,4-dimethylcyclohex-1-en-1-yl]methyl}piperazin-1-yl)-N-{[3-chloro-4-(tetrahydrofuran-3-ylmethoxy)phenyl]sulfonyl}-2-(1H-pyrrolo[2,3-b]pyridin-5-yloxy)benzamide]
Ki: 0.104 nM

O=C(NS(=O)(=O)c1ccc(NC[C@H]2CC[C@H](O)CC2)c([N+](=O)[O-])c1)c1ccc(N2CCN(CC3=C(c4ccc(Cl)cc4)CCC(F)(F)C3)CC2)cc1Oc1cnc2[nH]ccc2c1 [Example 324, 4-(4-{[2-(4-chlorophenyl)-5,5-difluorocyclohex-1-en-1-yl]methyl}piperazin-1-yl)-N-[(4-{[(trans-4-hydroxycyclohexyl)methyl]amino}-3-nitrophenyl)sulfonyl]-2-(1H-pyrrolo[2,3-b]pyridin-5-yloxy)benzamide]
Ki: < 0.01 nM

O=C(NS(=O)(=O)c1ccc(OCC2(F)CCOCC2)c(Cl)c1)c1ccc(N2CCN(CC3=C(c4ccc(Cl)cc4)CCC4(CCN(C5COC5)CC4)C3)CC2)cc1Oc1cnc2[nH]ccc2c1 [Example 325, N-({3-chloro-4-[(4-fluorotetrahydro-2H-pyran-4-yl)methoxy]phenyl}sulfonyl)-4-(4-{[9-(4-chlorophenyl)-3-(oxetan-3-yl)-3-azaspiro[5.5]undec-8-en-8-yl]methyl}piperazin-1-yl)-2-(1H-pyrrolo[2,3-b]pyridin-5-yloxy)benzamide]
Ki: < 0.01 nM

CC1(C)CCC(CN2CCN(c3ccc(C(=O)NS(=O)(=O)c4ccc(NC[C@@H]5CN(C6CC6)CCO5)c([N+](=O)[O-])c4)c(Oc4cnc5[nH]ccc5c4)c3)CC2)=C(c2ccc(Cl)cc2)C1 [Example 326, 4-(4-{[2-(4-chlorophenyl)-4,4-dimethylcyclohex-1-en-1-yl]methyl}piperazin-1-yl)-N-{[4-({[(2R)-4-cyclopropylmorpholin-2-yl]methyl}amino)-3-nitrophenyl]sulfonyl}-2-(1H-pyrrolo[2,3-b]pyridin-5-yloxy)benzamide]
Ki: < 0.01 nM

CC1(C)CCC(CN2CCN(c3ccc(C(=O)NS(=O)(=O)c4ccc(NC[C@H]5CN(C6CC6)CCO5)c([N+](=O)[O-])c4)c(Oc4cnc5[nH]ccc5c4)c3)CC2)=C(c2ccc(Cl)cc2)C1 [Example 327, 4-(4-{[2-(4-chlorophenyl)-4,4-dimethylcyclohex-1-en-1-yl]methyl}piperazin-1-yl)-N-{[4-({[(2S)-4-cyclopropylmorpholin-2-yl]methyl}amino)-3-nitrophenyl]sulfonyl}-2-(1H-pyrrolo[2,3-b]pyridin-5-yloxy)benzamide]
Ki: < 0.01 nM

O=C(NS(=O)(=O)c1ccc(NCC2CCOCC2)c([N+](=O)[O-])c1)c1ccc(N2CCN(CC3=C(c4ccc(Cl)cc4)CC4(CC3)CC4)CC2)cc1Oc1cnc2[nH]ccc2c1 [Example 328, 4-(4-{[5-(4-chlorophenyl)spiro[2.5]oct-5-en-6-yl]methyl}piperazin-1-yl)-N-({3-nitro-4-[(tetrahydro-2H-pyran-4-ylmethyl)amino]phenyl}sulfonyl)-2-(1H-pyrrolo[2,3-b]pyridin-5-yloxy)benzamide]
Ki: < 0.01 nM

CC1(C)CCC(CN2CCN(c3ccc(C(=O)NS(=O)(=O)c4cnc(OCC5CCC(N(C6CC6)C6COC6)CC5)c(Cl)c4)c(Oc4cnc5[nH]ccc5c4)c3)CC2)=C(c2ccc(Cl)cc2)C1 (stereo not drawn) [Example 329, N-{[5-chloro-6-({4-[cyclopropyl(oxetan-3-yl)amino]cyclohexyl}methoxy)pyridin-3-yl]sulfonyl}-4-(4-{[2-(4-chlorophenyl)-4,4-dimethylcyclohex-1-en-1-yl]methyl}piperazin-1-yl)-2-(1H-pyrrolo[2,3-b]pyridin-5-yloxy)benzamide]
Ki: 0.03 nM

O=C(NS(=O)(=O)c1ccc(NCC2CN(C3CC3)CCO2)c([N+](=O)[O-])c1)c1ccc(N2CCN(CC3=C(c4ccc(Cl)cc4)CC4(CC3)CC4)CC2)cc1Oc1cnc2[nH]ccc2c1 (stereo not drawn) [Example 330, 4-(4-{[5-(4-chlorophenyl)spiro[2.5]oct-5-en-6-yl]methyl}piperazin-1-yl)-N-[(4-{[(4-cyclopropylmorpholin-2-yl)methyl]amino}-3-nitrophenyl)sulfonyl]-2-(1H-pyrrolo[2,3-b]pyridin-5-yloxy)benzamide]
Ki: < 0.01 nM

CC1(C)CCC(CN2CCN(c3ccc(C(=O)NS(=O)(=O)c4ccc(OCC5CN(C6CC6)CCO5)c(Cl)c4)c(Oc4cnc5[nH]ccc5c4)c3)CC2)=C(c2ccc(Cl)cc2)C1 (stereo not drawn) [Example 331, N-({3-chloro-4-[(4-cyclopropylmorpholin-2-yl)methoxy]phenyl}sulfonyl)-4-(4-{[2-(4-chlorophenyl)-4,4-dimethylcyclohex-1-en-1-yl]methyl}piperazin-1-yl)-2-(1H-pyrrolo[2,3-b]pyridin-5-yloxy)benzamide]
Ki: 1.09 nM

CC1(C)CCC(CN2CCN(c3ccc(C(=O)NS(=O)(=O)c4ccc(NCC5CN(C6CC6)CCO5)c(Cl)c4)c(Oc4cnc5[nH]ccc5c4)c3)CC2)=C(c2ccc(Cl)cc2)C1 (stereo not drawn) [Example 332, N-[(3-chloro-4-{[(4-cyclopropylmorpholin-2-yl)methyl]amino}phenyl)sulfonyl]-4-(4-{[2-(4-chlorophenyl)-4,4-dimethylcyclohex-1-en-1-yl]methyl}piperazin-1-yl)-2-(1H-pyrrolo[2,3-b]pyridin-5-yloxy)benzamide]
Ki: 0.621 nM

CCN(C)C(=O)N1CCOC(CNc2ccc(S(=O)(=O)NC(=O)c3ccc(N4CCN(CC5=C(c6ccc(Cl)cc6)CC(C)(C)CC5)CC4)cc3Oc3cnc4[nH]ccc4c3)cc2Cl)C1 (stereo not drawn) [Example 333, 2-{[(2-chloro-4-{[4-(4-{[2-(4-chlorophenyl)-4,4-dimethylcyclohex-1-en-1-yl]methyl}piperazin-1-yl)-2-(1H-pyrrolo[2,3-b]pyridin-5-yloxy)benzoyl]sulfamoyl}phenyl)amino]methyl}-N-ethyl-N-methylmorpholine-4-carboxamide]
Ki: 0.511 nM

CCN(C)C(=O)N1CCO[C@H](COc2ncc(S(=O)(=O)NC(=O)c3ccc(N4CCN(CC5=C(c6ccc(Cl)cc6)CC(C)(C)CC5)CC4)cc3Oc3cnc4[nH]ccc4c3)cc2Cl)C1 [Example 334, (2S)-2-{[(3-chloro-5-{[4-(4-{[2-(4-chlorophenyl)-4,4-dimethylcyclohex-1-en-1-yl]methyl}piperazin-1-yl)-2-(1H-pyrrolo[2,3-b]pyridin-5-yloxy)benzoyl]sulfamoyl}pyridin-2-yl)oxy]methyl}-N-ethyl-N-methylmorpholine-4-carboxamide]
Ki: 0.572 nM

CC1(C)CCC(CN2CCN(c3ccc(C(=O)NS(=O)(=O)c4cnc(NCC5CN(C6CC6)CCO5)c(Cl)c4)c(Oc4cnc5[nH]ccc5c4)c3)CC2)=C(c2ccc(Cl)cc2)C1 (stereo not drawn) [Example 335, N-[(5-chloro-6-{[(4-cyclopropylmorpholin-2-yl)methyl]amino}pyridin-3-yl)sulfonyl]-4-(4-{[2-(4-chlorophenyl)-4,4-dimethylcyclohex-1-en-1-yl]methyl}piperazin-1-yl)-2-(1H-pyrrolo[2,3-b]pyridin-5-yloxy)benzamide]
Ki: 0.15 nM

CCN(C)C(=O)N1CCOC(CNc2ncc(S(=O)(=O)NC(=O)c3ccc(N4CCN(CC5=C(c6ccc(Cl)cc6)CC(C)(C)CC5)CC4)cc3Oc3cnc4[nH]ccc4c3)cc2Cl)C1 (stereo not drawn) [Example 336, 2-{[(3-chloro-5-{[4-(4-{[2-(4-chlorophenyl)-4,4-dimethylcyclohex-1-en-1-yl]methyl}piperazin-1-yl)-2-(1H-pyrrolo[2,3-b]pyridin-5-yloxy)benzoyl]sulfamoyl}pyridin-2-yl)amino]methyl}-N-ethyl-N-methylmorpholine-4-carboxamide]
Ki: 0.198 nM

CC1(C)CCC(CN2CCN(c3ccc(C(=O)NS(=O)(=O)c4ccc(NC5CCC(N(CCC#N)C6CC6)CC5)c([N+](=O)[O-])c4)c(Oc4cnc5[nH]ccc5c4)c3)CC2)=C(c2ccc(Cl)cc2)C1 (stereo not drawn) [Example 340, 4-(4-{[2-(4-chlorophenyl)-4,4-dimethylcyclohex-1-en-1-yl]methyl}piperazin-1-yl)-N-{[4-({4-[(2-cyanoethyl)(cyclopropyl)amino]cyclohexyl}amino)-3-nitrophenyl]sulfonyl}-2-(1H-pyrrolo[2,3-b]pyridin-5-yloxy)benzamide]
Ki: < 0.01 nM

CC1(C)CCC(CN2CCN(c3ccc(C(=O)NS(=O)(=O)c4cnc(OCC5CCc6nccn6C5)c(Cl)c4)c(Oc4cnc5[nH]ccc5c4)c3)CC2)=C(c2ccc(Cl)cc2)C1 (stereo not drawn) [Example 342, 4-(4-{[2-(4-chlorophenyl)-4,4-dimethylcyclohex-1-en-1-yl]methyl}piperazin-1-yl)-N-{[5-chloro-6-(5,6,7,8-tetrahydroimidazo[1,2-a]pyridin-6-ylmethoxy)pyridin-3-yl]sulfonyl}-2-(1H-pyrrolo[2,3-b]pyridin-5-yloxy)benzamide]
Ki: < 0.01 nM

O=C(NS(=O)(=O)c1cnc(OCC2(F)CCN(C3COC3)CC2)c(Cl)c1)c1ccc(N2CCN(CC3=C(c4ccc(Cl)cc4)CC4(CC3)CC4)CC2)cc1Oc1cnc2[nH]ccc2c1 [Example 345, N-[(5-chloro-6-{[4-fluoro-1-(oxetan-3-yl)piperidin-4-yl]methoxy}pyridin-3-yl)sulfonyl]-4-(4-{[5-(4-chlorophenyl)spiro[2.5]oct-5-en-6-yl]methyl}piperazin-1-yl)-2-(1H-pyrrolo[2,3-b]pyridin-5-yloxy)benzamide]
Ki: < 0.01 nM

From US8580794B2 (AbbVie Inc., priority 2009, dated 2013)
